What all share (format): in vivo
Design in all cases: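 index 0 to 10 in 10% steps of herbicidal effect with 10 meaning complete death and 0 below 10%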

One experiment relates to Echinochloa oryzicola. As to the kind of experiment: Herbicidal activity by paddy field soil treatment (Test Example 1). As to conditions: 1000 g of effective component per hectare, evaluated on day 21 after the treatment, criteria of Table 72. The essentials:
(§1)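 Paddy soil in pots sown with seeds, flooded to 3 cm; next day wettable powder diluted in water applied to water surface at 1000 g active ingredient/ha. Greenhouse-grown; herbicidal effect scored on day 21 after treatment against rating criteria.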

The test system of the next experiment is Monochoria vaginalis. The experiment is described as above. As to conditions: 1000 g of effective component per hectare, evaluated on day 21 after the treatment, criteria of Table 72. The procedure, abridged: as §1
The next experiment concerns Scirpus juncoides Rocxb. The description is as above. As to conditions: applied on water surface, 1000 g of effective component per hectare, day 21 after the treatment. The procedure, abridged:
as §1

Experiment [1] has as its system A. retroflexus. As to the kind of experiment: Herbicidal activity by field soil treatment (Test example 2). The note with it: 1000 g effective component per hectare, day 21 after the treatment. The procedure, abridged:
(§2)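 Seeds of the four weeds sown in field soil in pots; wettable powder diluted in water sprayed pre-emergence on soil surface at 1000 L/ha, giving 1000 g active per hectare. Greenhouse grown; herbicidal effect scored on day 21 after treatment by set criteria.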

For experiment [2], the system named is Echinochloa crus-galli. The description is as above. As to conditions: 1000 g effective component per hectare, day 21 after the treatment. The procedure, abridged:
as §2

Experiment [3] relates to Indian millet. The experiment is described as above. As to conditions: 1000 g effective component per hectare, day 21 after the treatment. The procedure, abridged:
as §2

The test system of experiment [4] is A. retroflexus. As to the kind of experiment: Herbicidal activity by field foliage treatment (Test example 3). The note with it: 1000 g effective component per hectare, day 14 after the treatment. The procedure, abridged: (§3)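 Field soil in pots; Indian millet and A. retroflexus grown 2 weeks in greenhouse, then sprayed over whole plant with water-diluted wettable powder at 1000 L/ha, giving 1000 g active component/ha. Herbicidal effect scored by set criteria on day 14 after treatment.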

Experiment [5] has as its system Indian millet. The experiment is described as above. As to conditions: 1000 g effective component per hectare, day 14 after the treatment. The essentials: as §3
Experiment [6] has as its system Echinochloa crus-galli. Described as above. The note with it: 1000 g effective component per hectare, day 14 after the treatment. The procedure, abridged: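 Potted field-soil plants grown 2 weeks in a greenhouse were sprayed over the whole foliage with diluted wettable powder at 1000 L/ha, delivering 1000 g active ingredient per hectare. Herbicidal effect scored by visual criteria 14 days after treatment.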

The results in this text go back to patent US8969554B2, “6-acyl-1,2,4-triazine-3,5-dione derivative and herbicides” (Kumiai Chemical Industry Co., Ltd., priority 2010, dated 2015).

For `Cc1ccc(-n2c(=O)c(C(=O)C3=C(O)CCCC3=O)nn(C)c2=O)cc1Cl` [I-125], the “Herbicidal effects index number, Echinochloa oryzicola” value with Echinochloa oryzicola is listed as 10. For the same compound, the “Herbicidal effects index number, Monochoria vaginalis” value in the experiment with Monochoria vaginalis came out at 10. Moreover, the “herbicidal effect index, S. juncoides Rocxb.” value in the experiment with Scirpus juncoides Rocxb. is on record as 10. For the same compound, the “herbicidal effect index, Amaranthus retroflexus” value in the experiment with A. retroflexus [1] and in the experiment with A. retroflexus [4] was 10 each time. Moreover, the “herbicidal effect index, Echinochloa crus-galli” value with Echinochloa crus-galli [2] stood at 7; in the experiment on Echinochloa crus-galli [6], 10. Moreover, the “herbicidal effect index, Abutilon theophrasti” value in the experiment with Indian millet [3] came out at 8; with Indian millet [5] it was 10.
As to `Cc1cc(-n2c(=O)c(C(=O)C3=C(O)CCCC3=O)nn(C)c2=O)ccc1Cl` [I-135], in the experiment with Echinochloa oryzicola, the “Herbicidal effects index number, Echinochloa oryzicola” value turned out to be 10. Also, the “Herbicidal effects index number, Monochoria vaginalis” value in the experiment on Monochoria vaginalis worked out at 10. The “herbicidal effect index, S. juncoides Rocxb.” value in the experiment with Scirpus juncoides Rocxb. worked out at 10. For the same compound, the “herbicidal effect index, Amaranthus retroflexus” value with A. retroflexus [1] and with A. retroflexus [4] was 10 each time. The results for the “herbicidal effect index, Echinochloa crus-galli” value in the experiment with Echinochloa crus-galli [2] and with Echinochloa crus-galli [6] were 9 and 10, respectively. Further, the “herbicidal effect index, Abutilon theophrasti” value in the experiment on Indian millet [3] is reported as 9; in the experiment with Indian millet [5], 10.
On to `COc1ccc(-n2c(=O)c(C(=O)C3=C(O)CCCC3=O)nn(C)c2=O)cc1C` [I-149], for which, in the experiment with Echinochloa oryzicola, the “Herbicidal effects index number, Echinochloa oryzicola” value is 9. The “Herbicidal effects index number, Monochoria vaginalis” value with Monochoria vaginalis was determined as 10. Also, the “herbicidal effect index, S. juncoides Rocxb.” value in the experiment on Scirpus juncoides Rocxb. was 10. For the same compound, the “herbicidal effect index, Amaranthus retroflexus” value with A. retroflexus [1] and with A. retroflexus [4] was 10 throughout. The “herbicidal effect index, Echinochloa crus-galli” value with Echinochloa crus-galli [2] and with Echinochloa crus-galli [6] was 8 in each case. Moreover, the “herbicidal effect index, Abutilon theophrasti” value with Indian millet [3] and in the experiment with Indian millet [5] was 10 in each case.
Consider `Cn1nc(C(=O)C2=C(O)CCCC2=O)c(=O)n(-c2cccs2)c1=O` [I-198], for which the “Herbicidal effects index number, Echinochloa oryzicola” value in the experiment on Echinochloa oryzicola was found to be 8. Moreover, the “Herbicidal effects index number, Monochoria vaginalis” value in the experiment with Monochoria vaginalis stood at 10. The “herbicidal effect index, S. juncoides Rocxb.” value with Scirpus juncoides Rocxb. was 10. Besides, the “herbicidal effect index, Amaranthus retroflexus” value in the experiment with A. retroflexus [1] and in the experiment on A. retroflexus [4] was 10 each time. The “herbicidal effect index, Echinochloa crus-galli” value stood at 7 with Echinochloa crus-galli [2] and 10 in the experiment with Echinochloa crus-galli [6]. Further, the “herbicidal effect index, Abutilon theophrasti” value with Indian millet [3] and with Indian millet [5] was 10 in each case.
With `CCn1nc(C(=O)C2=C(O)CCCC2=O)c(=O)n(-c2ccccc2)c1=O` [I-259], the “Herbicidal effects index number, Echinochloa oryzicola” value with Echinochloa oryzicola was 10. Further, the “Herbicidal effects index number, Monochoria vaginalis” value in the experiment with Monochoria vaginalis turned out to be 10. Further, the “herbicidal effect index, S. juncoides Rocxb.” value in the experiment with Scirpus juncoides Rocxb. is 10. Further, the “herbicidal effect index, Amaranthus retroflexus” value in the experiment with A. retroflexus [1] and with A. retroflexus [4] was 10 throughout. In addition, the “herbicidal effect index, Echinochloa crus-galli” value with Echinochloa crus-galli [2] and with Echinochloa crus-galli [6] was 10 throughout. Moreover, the entries for the “herbicidal effect index, Abutilon theophrasti” value with Indian millet [3] and with Indian millet [5] were 8 and 10, respectively.
As to `COc1cc(OC)nc(-n2c(=O)c(C(=O)C3=C(O)CCCC3=O)nn(C)c2=O)n1` [I-273], the “Herbicidal effects index number, Echinochloa oryzicola” value with Echinochloa oryzicola came to 9. The “Herbicidal effects index number, Monochoria vaginalis” value in the experiment on Monochoria vaginalis is 9. Moreover, the “herbicidal effect index, S. juncoides Rocxb.” value in the experiment on Scirpus juncoides Rocxb. came to 10. Also, the “herbicidal effect index, Amaranthus retroflexus” value in the experiment with A. retroflexus [1] and in the experiment on A. retroflexus [4] was 10 throughout. For the same compound, the “herbicidal effect index, Echinochloa crus-galli” value in the experiment on Echinochloa crus-galli [2] is on record as 9; in the experiment with Echinochloa crus-galli [6] it was 10. The “herbicidal effect index, Abutilon theophrasti” value in the experiment with Indian millet [3] was determined as 7; in the experiment on Indian millet [5] it was 9.
As for `Cc1cccc(-n2c(=O)c(C(=O)C3=C(O)CCCC3=O)nn(C)c2=O)n1` [I-279], in the experiment with Echinochloa oryzicola, the “Herbicidal effects index number, Echinochloa oryzicola” value came out at 8. In addition, the “Herbicidal effects index number, Monochoria vaginalis” value in the experiment on Monochoria vaginalis stood at 8. In the experiment on Scirpus juncoides Rocxb., the “herbicidal effect index, S. juncoides Rocxb.” value is 10. Also, the “herbicidal effect index, Amaranthus retroflexus” value in the experiment on A. retroflexus [1] and with A. retroflexus [4] was 10 each time. The “herbicidal effect index, Echinochloa crus-galli” value in the experiment with Echinochloa crus-galli [2] was found to be 7; with Echinochloa crus-galli [6] it was 9. Further, the “herbicidal effect index, Abutilon theophrasti” value in the experiment with Indian millet [3] and in the experiment with Indian millet [5] was 10 in each case.
With `COc1ccc(-n2c(=O)c(C(=O)C3=C(O)CCCC3=O)nn(C)c2=O)cn1` [I-287], the “Herbicidal effects index number, Echinochloa oryzicola” value in the experiment with Echinochloa oryzicola is 10. Also, the “Herbicidal effects index number, Monochoria vaginalis” value in the experiment on Monochoria vaginalis is 10. Moreover, the “herbicidal effect index, S. juncoides Rocxb.” value in the experiment on Scirpus juncoides Rocxb. was found to be 10. Moreover, the “herbicidal effect index, Amaranthus retroflexus” value in the experiment with A. retroflexus [1] and in the experiment on A. retroflexus [4] was 10 in each case. In addition, the “herbicidal effect index, Echinochloa crus-galli” value in the experiment on Echinochloa crus-galli [2] is on record as 10; in the experiment with Echinochloa crus-galli [6], 8. Moreover, the “herbicidal effect index, Abutilon theophrasti” value in the experiment with Indian millet [3] and with Indian millet [5] was 9 each time.
With `Cn1nc(C(=O)C2=C(O)CCCC2=O)c(=O)n(CC2CCCO2)c1=O` (stereo not drawn) [I-339], the “Herbicidal effects index number, Echinochloa oryzicola” value in the experiment with Echinochloa oryzicola is recorded as 10. The “Herbicidal effects index number, Monochoria vaginalis” value with Monochoria vaginalis turned out to be 10. The “herbicidal effect index, S. juncoides Rocxb.” value in the experiment with Scirpus juncoides Rocxb. is reported as 10. Besides, the “herbicidal effect index, Amaranthus retroflexus” value in the experiment on A. retroflexus [1] and with A. retroflexus [4] was 10 each time. The “herbicidal effect index, Echinochloa crus-galli” value was found to be 8 in the experiment with Echinochloa crus-galli [2] and 9 in the experiment on Echinochloa crus-galli [6]. Besides, the “herbicidal effect index, Abutilon theophrasti” value in the experiment on Indian millet [3] and in the experiment with Indian millet [5] was 10 throughout.
As for `CCN(c1ccccc1)n1c(=O)c(C(=O)C2=C(O)CCCC2=O)nn(C)c1=O` [I-474], the “Herbicidal effects index number, Echinochloa oryzicola” value in the experiment on Echinochloa oryzicola turned out to be 10. The “Herbicidal effects index number, Monochoria vaginalis” value in the experiment on Monochoria vaginalis worked out at 10. Also, in the experiment with Scirpus juncoides Rocxb., the “herbicidal effect index, S. juncoides Rocxb.” value worked out at 10. The “herbicidal effect index, Amaranthus retroflexus” value with A. retroflexus [1] was found to be 10; in the experiment on A. retroflexus [4], 9. The “herbicidal effect index, Echinochloa crus-galli” value in the experiment on Echinochloa crus-galli [2] and in the experiment with Echinochloa crus-galli [6] was 7 in each case. Further, the “herbicidal effect index, Abutilon theophrasti” value amounted to 10 in the experiment with Indian millet [3] and 9 with Indian millet [5].
As to `CN(c1ccc(F)cc1)n1c(=O)c(C(=O)C2=C(O)CCCC2=O)nn(C)c1=O` [I-476], the “Herbicidal effects index number, Echinochloa oryzicola” value in the experiment with Echinochloa oryzicola is on record as 10. The “Herbicidal effects index number, Monochoria vaginalis” value in the experiment on Monochoria vaginalis was determined as 10. For the same compound, the “herbicidal effect index, S. juncoides Rocxb.” value with Scirpus juncoides Rocxb. worked out at 10. The “herbicidal effect index, Amaranthus retroflexus” value in the experiment on A. retroflexus [1] and with A. retroflexus [4] was 10 in each case. For the same compound, the “herbicidal effect index, Echinochloa crus-galli” value in the experiment on Echinochloa crus-galli [2] and with Echinochloa crus-galli [6] was 7 in each case. Moreover, the results for the “herbicidal effect index, Abutilon theophrasti” value in the experiment on Indian millet [3] and in the experiment with Indian millet [5] were 10 and 9, respectively.
As to `O=C1CCCC(O)=C1C(=O)c1nn(CC(F)(F)F)c(=O)n(-c2ccccc2)c1=O` [I-477], the “Herbicidal effects index number, Echinochloa oryzicola” value in the experiment on Echinochloa oryzicola was determined as 10. Further, the “Herbicidal effects index number, Monochoria vaginalis” value in the experiment with Monochoria vaginalis is given as 10. In addition, the “herbicidal effect index, S. juncoides Rocxb.” value in the experiment with Scirpus juncoides Rocxb. came out at 10. Moreover, the “herbicidal effect index, Amaranthus retroflexus” value with A. retroflexus [1] and with A. retroflexus [4] was 10 each time. The “herbicidal effect index, Echinochloa crus-galli” value with Echinochloa crus-galli [2] and in the experiment on Echinochloa crus-galli [6] was 9 each time. The figures for the “herbicidal effect index, Abutilon theophrasti” value in the experiment on Indian millet [3] and in the experiment with Indian millet [5] were 10 and 9, respectively.
Regarding `CCON=C(C)Cn1c(=O)c(C(=O)C2=C(O)CCCC2=O)nn(C)c1=O` [I-478], the “Herbicidal effects index number, Echinochloa oryzicola” value in the experiment with Echinochloa oryzicola turned out to be 10. The “Herbicidal effects index number, Monochoria vaginalis” value in the experiment on Monochoria vaginalis came to 10. Also, the “herbicidal effect index, S. juncoides Rocxb.” value with Scirpus juncoides Rocxb. is given as 9. Further, the “herbicidal effect index, Amaranthus retroflexus” value with A. retroflexus [1] and in the experiment with A. retroflexus [4] was 10 throughout. The “herbicidal effect index, Echinochloa crus-galli” value in the experiment with Echinochloa crus-galli [2] is 9; with Echinochloa crus-galli [6] it was 8. Besides, the “herbicidal effect index, Abutilon theophrasti” value amounted to 10 in the experiment on Indian millet [3] and 9 in the experiment on Indian millet [5].
With `CCN(c1ccccc1)n1c(=O)c(C(=O)O)nn(C)c1=O` [V-368], in the experiment on Echinochloa oryzicola, the “Herbicidal effects index number, Echinochloa oryzicola” value was found to be 10. In addition, the “Herbicidal effects index number, Monochoria vaginalis” value in the experiment with Monochoria vaginalis came to 10. In addition, the “herbicidal effect index, S. juncoides Rocxb.” value with Scirpus juncoides Rocxb. stood at 10. Also, the “herbicidal effect index, Amaranthus retroflexus” value amounted to 10 in the experiment with A. retroflexus [1] and 9 in the experiment on A. retroflexus [4]. In addition, the “herbicidal effect index, Echinochloa crus-galli” value in the experiment with Echinochloa crus-galli [2] and with Echinochloa crus-galli [6] was 7 throughout. Besides, the “herbicidal effect index, Abutilon theophrasti” value is 10 in the experiment with Indian millet [3] and 9 with Indian millet [5].
